According to patent EP4714468A1, “METHOD FOR ADMINISTERING MODULATOR TARGETING S1PR1 AND S1PR4” (priority 2023, dated 2024):
Read-outs that look alike come from different tables or passages of the source.

Key:
[1] = Phase 1 clinical trial, single ascending dose (SAD): safety and tolerability; set-up: species or system healthy adult males; conditions: in vivo
Procedure: (§1) A randomized, double-blind, placebo-controlled, step-escalation, single- and multiple-dose phase 1 clinical trial was conducted to evaluate the safety, tolerability, and pharmacokinetic/pharmacodynamic characteristics of a compound of Chemical Formula 1 (NXC736) after oral administration to healthy adult males.
The clinical trial drug product is a white, round, film-coated tablet (1 mg, 3 mg tablet) or a yellow, round, film-coated tablet (10, 20 mg, 40 mg, 60 mg, 80 mg tablet) containing the active ingredient (main ingredient) NXC736 and excipients such as diluents, binders, disintegrants, fluidizing agents and glidants. The NXC736 clinical trial drug product was manufactured as an 84 mg film-coated tablet containing 1 mg or 3 mg of the main ingredient, or a 334 mg film-coated tablet containing 10 mg, 20 mg, 40 mg, 60 mg or 80 mg of the main ingredient, and it can be stored at room temperature (1 to 30°C) in an airtight container.
In this clinical trial, a total of 42 subjects were randomly assigned to a single-administration, and a total of 39 subjects completed the study according to the clinical trial protocol. A total of 33 subjects were assigned to a repeated-administration trial, and a total of 32 subjects completed the study according to the clinical trial protocol.
(§2) The subjects were administered a single oral dose of the clinical trial drug on an empty stomach at around 9:00 AM on the day of administration after fasting for at least 10 hours. In the single-administration trial, the subjects were administered the drug and hospitalized for 8 days. After discharge, they were observed through outpatient visits until day 21. Blood was collected once before administration and at regular intervals after administration, and hematological tests were performed.

[2] = tested on: absolute lymphocyte count (ALC); assay: Phase 1 clinical trial, single administration: pharmacodynamics by hematological test; type: in vivo, healthy adult males
Procedure: as §1, §2

[3] = tested on: lymphocytes in the peripheral blood stream; assay: Absolute lymphocyte count suppression in healthy rats; type: in vivo, SD rats
[4] = in vivo
[5] = tested on: Sphingosine-1 Phosphate (S1P) receptor; conditions: background art statement; cited from earlier work
[6] = Phase 1 clinical trial, repeated administration: pharmacokinetics; type: in vivo, healthy adult males
Procedure: as §1
(§3) The subjects fasted for at least 10 hours before the first administration. Afterwards, the clinical trial drug was administered orally twice a day for 13 days and once on day 14 in a fasting state at around 9:00 AM and 9:00 PM. The administration was performed twice a day for approximately 14 days, and the subjects were discharged on day 21 from the first administration and observed through outpatient visits until day 36. Blood was collected once before administration and at regular intervals after administration, and hematological tests were performed.

[7] = tested on: absolute lymphocyte count (ALC); assay: Phase 1 clinical trial, repeated administration: pharmacodynamics by hematological test; type: in vivo, healthy adult males
Procedure: as §1, §3

[8] = Phase 1 clinical trial, single administration: pharmacokinetics; type: in vivo, healthy adult males
Procedure: as §1, §2

[9] = tested on: lymphocyte-mediated diseases; conditions: alopecia areata, inflammatory bowel disease, interstitial fibrosis and tubular atrophy, focal segmental glomerulosclerosis; Korean patents; cited from earlier work
[10] = tested on: alopecia areata lesion area; assay: C3H/HeJ alopecia areata mouse model; type: in vivo, C3H/HeJ mice; conditions: 3 mg/kg or 10 mg/kg oral twice a day, 12 weeks
Procedure: The efficacy of NXC736 on alopecia areata was evaluated by using the alopecia areata mouse model C3H/HeJ (Jackson Lab, Saeron Bio).
C3H/HeJ mice, 10 to 16 weeks of age, in which alopecia areata was not induced, were divided into two groups: a control group (sterile distilled water administration group) and an NXC736 administration experimental group, and 5 mice per group were randomly assigned. After the lymph node cells were proliferated and injected into the C3H/HeJ mice, the NXC736 administration experimental group was orally administered with 3 mg/kg or 10 mg/kg of NXC736, and the control group was orally administered with the same volume of sterile distilled water twice a day at the same time for 12 weeks. The alopecia areata lesion area and disease free ratio were measured at two-week intervals. The animal breeding room was maintained at a temperature of 23±3°C, a relative humidity of 50±10%, and a 12-hour light and dark cycle, and the experimental animals were bred in isolation boxes (ThreeShine) and were given experimental animal feed and water ad libitum.
After 12 weeks, the circular alopecia lesion area was photographed and quantified by using the Image J program (Version 1.44p).

T lymphocytes = conditions: through the suppression of T lymphocytes; cited from earlier work

With `CCCCCCCCCCn1cc(CCC(N)(CO)CO)nn1` [NXC736] as the compound, how does the “adverse reactions (ADR) assessed as having a causal relationship with the investigational drug” value [1] read?
Its value is 12.

And the “adverse reactions (number of events)” value [1]?
Its value is 23.

What about the “decrease in heart rate after administration” value [1] of the same compound?
Its value is “observed in most subjects administered NXC736”.

What about the “difference in frequency of adverse reactions between dose groups” value [1] of the same compound?
The value was “no significant difference in the frequency of adverse reactions between the dose groups”.

What about the serious adverse reactions [1] of the same compound?
Its serious adverse reactions is “No serious adverse reactions were observed”.

What about the “severity and outcome of adverse reactions” value [1] of the same compound?
The value was “Most adverse reactions were mild and all recovered during the trial period”.

What about the “subjects with adverse reactions” value [1] of the same compound?
Its value is 9.

What about the “change in ALC” value ([2]; single administration 1 mg) of the same compound?
Its value is 16%.

And the “change in ALC” value ([2]; single administration 3 mg)?
The value was 27%.

What about the “change in ALC” value ([2]; single administration 10 mg) of the same compound?
Its value is 27%.

And the “change in ALC” value ([2]; single administration 20 mg)?
Its value is 25%.

And the “absolute lymphocyte count after administration compared to before administration” value ([2]; single administration 40 mg)?
Its value is “about 68%”.

What about the “absolute lymphocyte count after administration compared to before administration” value ([2]; single administration 80 mg) of the same compound?
Its value is “about 54%”.

And the “lymphocytes suppressed by” value ([3]; 5 mg/kg oral twice a day, 4 hours after the first administration)?
Its value is “up to 78%”.

And the “lymphocytes suppressed by” value ([3]; 5 mg/kg oral twice a day, 4 hours after the second administration (16 hours after the first))?
Its value is “approximately 90%”.

What about the “lymphocytes recovered to” value ([3]; 5 mg/kg oral twice a day, 24 hours) of the same compound?
Its value is “approximately 50%”.

And the “lymphocytes suppressed by” value ([3]; 10 mg/kg oral twice a day, 4 hours after the first administration)?
The value was “up to 83%”.

And the “lymphocytes suppressed by” value ([3]; 10 mg/kg oral twice a day, 4 hours after the second administration (16 hours after the first))?
The value was “up to 94%”.

And the “lymphocyte suppression effect maintained” value ([3]; 10 mg/kg oral twice a day, up to 24 hours)?
The value was “about 80%”.

What about the “lymphocyte suppression effect maintained” value ([3]; 10 mg/kg oral twice a day, up to 36 hours) of the same compound?
Its value is “about 70%”.

What about the “lymphocytes suppressed by” value ([3]; 20 mg/kg oral once a day, 12 hours) of the same compound?
Its value is “up to 92%”.

What about the “lymphocytes recovered to” value ([3]; 20 mg/kg oral once a day, 24 hours) of the same compound?
The value was 60%.

And the “lymphocytes recovered to” value ([3]; 20 mg/kg oral once a day, 48 hours)?
Its value is 100%.

What about the “lymphocyte suppression effect, twice a day vs once a day” value ([3]; 5 or 10 mg/kg BID vs 20 mg/kg QD) of the same compound?
The value was “superior when administered twice a day even at a lower dose compared to when administered once a day”.

What about the serious adverse reactions [4] of the same compound?
Its serious adverse reactions is “No serious adverse reactions were observed”.

And the “binding selectivity among S1P receptor subtypes” value [5]?
Its value is “selectively binds to S1P1 and S1P4”.

What about the “accumulation at steady state compared to the first administration” value ([6]; repeated administration) of the same compound?
The value was “approximately twice”.

And the “dose proportionality of Cmax,ss and AUCtau,ss” value ([6]; repeated administrations)?
The value was “confirmed”.

What about the “change in ALC” value ([7]; 20 mg twice daily, 14-day repeated administration) of the same compound?
Its value is no more than 30%.

And the ALC reduction effect ([7]; 40 mg to 80 mg, repeated administrations twice a day)?
The ALC reduction effect was no less than 50%.

What about the “absolute lymphocyte count decrease” value ([7]; 60 mg twice-daily administration group or higher, 14 days) of the same compound?
Its value is “up to 70%”.

What about the “absolute lymphocyte count after administration compared to before administration” value ([7]; repeated administrations 40 mg) of the same compound?
Its value is “about 43%”.

And the “absolute lymphocyte count after administration compared to before administration” value ([7]; repeated administrations 60 mg)?
Its value is “about 32%”.

And the “absolute lymphocyte count after administration compared to before administration” value ([7]; repeated administrations 80 mg)?
Its value is “about 36%”.

And the elimination in urine [8]?
Its elimination in urine is “hardly eliminated in urine”.

And the half-life ([8]; human, in vivo, po, read-out: average elimination half-life (converted))?
The half-life was roughly 10 h.

What about the Tmax ([8]; human, plasma, po, read-out: time to reach peak plasma concentrations) of the same compound?
Its Tmax is roughly 1 h.

What about the “treatment of lymphocyte-mediated diseases in animal experiments” value [9] of the same compound?
The value was “effectively treat”.

What about the “circular alopecia lesion area compared to control group” value [10] of the same compound?
The value was “effectively reduced”.

And the “dose dependence of therapeutic effect on alopecia lesion area” value [10]?
The value was “concentration-dependent therapeutic effect was observed”.

With `C=CC(=O)N1C[C@H](Nc2ncnc3[nH]ccc23)CC[C@@H]1C` [Ritlecitinib] as the compound, how does the “therapeutic effect on alopecia areata” value (T lymphocytes) read?
The value was “show a therapeutic effect on alopecia areata”.
